# Measurements published in publication PMC9481570, “A small molecule antagonist of SMN disrupts the interaction between SMN and RNAP II” (Nature Communications, 2022).
# Values joined by “and” are separate entries in the source; they are usually repeats but may differ in a detail not shown here. Identical values can stand only once.
# Molecular target: T1, SMN (Homo sapiens, UniProt Q16637)
# T1 construct: endogenous in cells; host or cells: U2OS
# Assay: AP-MS chemical proteomics, SMN
# Assay type: binding
# Protocol: The samples for AP-MS were prepared following pulldown procedure as previously described with minor modifications. Briefly, U2OS cells were lysed in RIPA buffer and the cell lysate was equally divided into two groups: (1) DMSO group (control group): the cell lysate was incubated with 20 μM biotin-labeled compound 1; (2) Cpmd 1 group (sample group): the cell lysate was incubated with 20 μM biotin-labeled compound 1 and 200 μM free compound 1. Each group contains three biological replicates. They were incubated overnight at 4 °C, then 30 μL streptavidin beads (Thermo Fisher, 20353) was added and incubated at 4 °C for 1 h. The beads were then washed with RIPA buffer for 3 times, 10 min/time.
# Beads were rinsed twice with 50 mM TEAB, pH 7.55, before eluting proteins with 25 μL of 5% SDS, 50 mM TEAB, pH 7.55. The sample was then centrifuged at 17,000 × g for 10 min to remove any debris. Proteins were reduced with 20 mM TCEP (Thermo Fisher, 77720) and incubated at 65 °C for 30 min. […]
# Samples were analyzed by nanoLC-MS/MS (nanoRSLC, Thermo Fisher) using an Aurora series (Ion Opticks) reversed phase HPLC column (25 cm length × 75 µm inner diameter) and directly injected to an Orbitrap Eclipse (Thermo Fisher) using a 120 min gradient (mobile phase A = 0.1% formic acid, mobile phase B = 99.9% acetonitrile with 0.1% formic acid; hold 2% B for 5 min, 2–6% B in 0.1 min, 6–25% in 100 min, 25–50% in 15 min) at a flow rate of 350 nL/min. Eluted peptide ions were analyzed using a data-dependent acquisition (DDA) method with resolution settings of 120,000 and 15,000 (at m/z 200) for MS1 and MS2 scans, respectively. […]
# The data of AP-MS were analyzed as a previously described method with minor modifications. […] Relative protein quantification was based on the label-free quantification incorporated in the MaxQuant software. […] The missing iBAQ intensity was replaced by a random number, which was calculated from a normal distribution with a width of 0.3 and a downshift of 1.8 defined by Perseus software (version 1.6.5.0). The P-value was calculated by performing two-sample Student’s t-test. […]
# T1 sequence (Q16637 whole entry): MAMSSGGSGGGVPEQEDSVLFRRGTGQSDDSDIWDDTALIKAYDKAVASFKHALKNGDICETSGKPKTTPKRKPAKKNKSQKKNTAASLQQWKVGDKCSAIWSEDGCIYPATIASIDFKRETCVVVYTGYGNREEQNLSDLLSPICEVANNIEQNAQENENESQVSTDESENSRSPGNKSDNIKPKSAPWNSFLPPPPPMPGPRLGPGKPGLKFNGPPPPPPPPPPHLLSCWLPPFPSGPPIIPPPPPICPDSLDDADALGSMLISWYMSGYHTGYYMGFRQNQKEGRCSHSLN
compound,measurement,setting,value
"Cn1c2c(c(=N)c3c1CCC3)CCC2 [Compound 1, 4-methyl-2,3,4,5,6,7-hexahydrodicyclopenta[b,e]pyridin-8(1H)-imine]",Difference,"GN=SMN1/SMN2 (Q16637), Cmpd minus DMSO, -LOG(P-value) 4.49648",-8.914
same,iBAQ Cmpd,"GN=SMN1/SMN2 (Q16637), replicates 1-3",15.271 and 13.8686 and 14.4098
same,"log2 FC (Cmpd 1/DMSO), SMN","biotin-Cmpd 1 pulldown, competition with 200 μM compound 1 relative to DMSO, U2OS lysate",−8.9
